Tests used:
[1] = Solubility of the drug substance in water; type: physicochemical
Text: The drug substance, CBD is insoluble in water. Sesame oil was selected as an excipient to solubilize the drug substance.

Dravet syndrome = conditions: Phase 3, Dravet syndrome; cited from earlier work
seizures [2] = conditions: of four adult patients; 200 mg/day; cited from earlier work
seizures [3] = conditions: twelve institutionalized adult patients; 200 mg/day; cited from earlier work
[4] = tested on: seizures after administration of pro-convulsant drugs or an electric current; conditions: mice; cited from earlier work
[5] = tested on: secondary generalized epilepsy; conditions: of eight adult patients; cited from earlier work
[6] = tested on: epilepsy associated with GRIN2A mutation; assay: Expanded access compassionate use case study of a child with GRIN2A mutation refractory epilepsy; type: in vivo, human
Experimental: Example 1 describes a case study of a child with a GRIN2A mutation that was provided highly purified cannabidiol as part of an expanded access treatment program of children with refractory epilepsy.
A child was enrolled in an expanded access compassionate use program for CBD. This subject was treated with a highly purified extract of cannabidiol (CBD) obtained from a cannabis plant. Frequency of seizures was recorded at each visit, as were reported quality of life changes, including mood, behaviour, and cognitive function.
The patient first presented with seizures. They experienced status epilepticus with myoclonic jerks and atypical absence seizures which lasted between 30 seconds to 15 minutes.
The patient had tried and failed 10 different anti-epileptic drugs, the ketogenic diet, vitamin B6 and vagus nerve stimulation however their seizures remained refractory.
Treatment with a highly purified CBD extract (greater than 98% CBD w/w) in sesame oil, of known and constant composition, at a dose of 5 mg/kg/day in addition to their baseline anti-epileptic drug (AED) regimen was commenced in September 2014 and has been ongoing for four years.
Laboratory testing for hematologic, liver, kidney function and concomitant AED levels was performed at baseline, and after every 4 weeks of CBD therapy.

seizures [7] = conditions: rabbit, in vivo; cited from earlier work

Compound	Solubility in water [1]	Study outcome (Dravet syndrome)	Number of patients who became seizure free (seizures [2])	Control of seizures (seizures [3])	Prevention of seizures [4]	Number of patients with marked reduction of seizures [5]	Concomitant anti-epileptic drugs after treatment ([6]; after CBD treatment)	Cognitive function ([6]; after CBD treatment, patient now attends regular school and sports activities)	Seizure status since the start of treatment ([6]; one patient, CBD 5 up to 25 mg/kg/day added to baseline AEDs, four years of treatment)	EEG: posterior dominate rhythm, alpha activity ([6]; repeat EEG after treatment with CBD (FIG. 2))	EEG: epileptiform discharges ([6]; repeat EEG after treatment with CBD (FIG. 2), left frontal head region)	EEG: electrical status epilepticus during sleep ([6]; repeat EEG after treatment with CBD (FIG. 2), present at baseline)	Convulsant liability (seizures [7])
C=C(C)[C@@H]1CCC(C)=C[C@H]1c1c(O)cc(CCCCC)cc1O [CBD, Cannabidiol]	insoluble	positive results	two	ineffective	able to prevent seizures	4	All AEDs have been stopped with the exception of clobazam and the VNS	significantly improved	seizure free	9 Hz	rare	no electrical status epilepticus during sleep	
CCCCCc1cc(O)c2c(c1)OC(C)(C)[C@@H]1CCC(C)=C[C@@H]21 [THC, Tetrahydrocannabinol]													pro-convulsant
